The subject of test [1] is α-tubulin acetylation. The test is described as follows: Immunofluorescence microscopy of α-tubulin acetylation in PC-3M-luc cells. It counts as cell-based. The note with it: 20 μM, 5 h. How it is done:
The detection of acetylation levels of α-tubulin by immunofluorescence was performed as previously described.[47] In brief, PC-3M-luc cells (25 000 cells per well) were plated in Ibidi 8-well slides (Ibidi, catalogue no. 80826) and incubated overnight at 37 °C, 5% CO2. Next, cells were treated with 20 μM of inhibitor. After 5 h, the medium was removed and the cells washed with PBS and fixed with 4% PFA for 8–10 min at ambient temperature. Cells were rinsed three times with PBS and lysed with extraction buffer (PBS, 0.1% Triton X-100) for 3–5 min at ambient temperature. After another washing step with PBS, blocking buffer (PBS, 0.1% Triton, 5% FCS) was added for at least 10 min before incubating with monoclonal acetylated α-tubulin antibody (1:500, Sigma-Aldrich, catalogue no. T6793) in blocking buffer overnight at 4 °C. […] The cells were rinsed two times with blocking buffer and once with PBS and DAPI in mounting medium ([…] HardSet Antifade Mounting Medium with DAPI, no. H-1500-10) diluted 1:50 in PBS was added and it was incubated for 10 min in the dark. Confocal microscopy was performed with a Leica SP8 confocal microscope equipped with a 40×/1.40 oil objective (Leica Microsystems) keeping the laser settings of the images constant to allow direct comparison of signal intensities between images.

For test [2], the target named is Sirt2 (demyristoylation) (Homo sapiens, UniProt Q8IXJ6). The test is described as follows: Continuous Sirt2 demyristoylation assay (myristoylated peptide substrate). It counts as biochemical. Conditions: peptide-based myristoylated substrate, triplicate; read-out: Sirt2-mediated demyristoylation IC50. The method, then:
As a second method to confirm the inhibition of Sirt2-mediated demyristoylation by 33, we used a continuous Sirt2 demyristoylation assay as reported by Zessin et al.[48] In brief, this assay was performed in a black 384-well fluorescence plate in a total volume of 40 μL of Sirt assay buffer (20 mM Tris-HCl, 150 mM NaCl, 5 mg/mL MgCl2, 2 mg/mL BSA, pH 7.8). Dilution series of the inhibitor was done in DMSO. A total of 2 μL of the inhibitor dilutions were incubated with 14 μL of the peptide substrate, referred to as F4 in Zessin et al.[48] (final concentration 40 nM) and 14 μL of Sirt2 solution (final concentration 1 nM) for 5 min at room temperature. In addition to the inhibitor-containing samples, a sample without inhibitors was measured as a positive control, and a sample without enzymes was measured as a negative control. The DMSO concentration was set to 5% (v/v). The reaction was started by the addition of 10 μL of NAD^+ (final concentration 500 μM). The product formation was monitored by the change in fluorescence intensity, and the reaction rate represented the activity. Fluorescence readout was performed with a BMG Fluostar Omega plate reader at following wavelengths: Excitation wavelength: λEx = 485 ± 10 nm, emission wavelength: λEm = 530 ± 10 nm. Inhibition was calculated using the following equation: [drawing 1] […]

For test [3], the system named is PC-3M-luc prostate cancer cells. As to the kind of experiment: Cell viability assay (MTS) PC-3M-luc. It counts as cell-based. The note with it: 72 h, @ 50 μM. The method, then: (§1) Cell viability assays of HGC27 and PC-3M-luc cells were performed by using the Celltiter 96 Aqueous Nonradioactive Proliferation Assay (Promega). Cells were seeded in sterile 96-well plates at a density of 2000 cells per well and incubated overnight at 37 °C and 5% CO2. Compound or vehicle were added to a final concentration of 0.5% DMSO. […] Cells were seeded at densities of 10^4 cells/well for W1 cells or 2 × 10^3 cells/well for MCF-7 cells. Tests were performed in 96-well plates (Sarstedt AG, Nümbrecht, Germany). After incubation overnight, cells were supplemented with half logarithmic dilution series of the indicated compounds and DPBS (PAN Biotech GmbH, Aidenbach, Germany) as control. Then 72 h after addition of cytostatic treatment, the MTT solution (20 μL, 5 mg/mL) was added into the wells for 1 h at 37 °C and 5% CO2 until formazan crystals were formed. The supernatant was removed, and the cells were dissolved in 200 μL of DMSO. Absorption was analyzed at 570 nm, with background subtraction at 690 nm, using a plate reader (Thermomultiscan EX, Thermo, Schwerte, Germany). Cell viability was then determined by nonlinear regression and a four-parameter logistic equation with variable hill slope. […] The significance of the difference of the effects of 33 and 4 + 57 was determined by using an unpaired, two-tailed t test with Welch’s correction, implemented in GraphPad Prism 8.4.0 (GraphPad, USA). Statistical significance was accepted if p < 0.05. Asterisks indicate *p < 0.05, **p < 0.01.

Test [4] has as its system histone H3 acetylation (marker of HDAC1-3 inhibition). The test is described as follows: Western blot on histone H3 hyperacetylation in MCF-7 cells. It counts as cell-based. Conditions: 24 h, 10 µM. The method, then:
Western blots on histone H3 hyperacetylation in MCF-7 cells were performed according to a previously published protocol.[72] In brief, MCF-7 were centrifuged (450g, 4 min, 22 °C) and lysed with cell extraction buffer (Thermo Fisher), supplemented with 0.1 mM PMSF, Halt Protease Inhibitor (Thermo Fisher), and Natriumorthovanadat (Thermo Fisher). Precast gels with a polymerization degree of 4–15% were used (Mini-PROTEAN TGX Stain-Free; Bio-Rad Laboratories GmbH, Munich, Germany). Proteins were transferred to Trans-Blot Turbo-PVDF membrane (Bio-Rad). The membrane was blocked with skimmed milk powder in Tris-buffered saline-Tween 20 (with 0.2% Tween 20) for 60 min, followed by three washing cycles of 10 min using Tris-buffered saline-Tween 20. Afterward, membranes were incubated with primary antibodies for ac.-Histon H3 (Cell Signal, rabbit) and GAPDH (Gene Tex, Irvine, USA, mouse) for a total of 60 min at room temperature and then incubated at 4 °C overnight. […] After rinsing of the secondary antibody, membranes were detected using ClarityECL Western Blotting Substrate (Bio-Rad). For quantitative determination, the StainFree technique was employed (Bio-Rad), as well as normalization, against the housekeeping protein GAPDH, which allows the imaging of whole lysates in SDS-PAGE before blotting and normalization against the total protein. […]
On the technique in general: In western blotting, separated proteins are transferred to a membrane and probed.

In test [5] the test system is W1 ovarian cancer cells. The test is described as follows: Cell viability assay (MTT) W1. It counts as cell-based. The note with it: 72 h, @ 50 μM. The method, then: as §1
Test [6] relates to HGC27 gastric carcinoma cells. As to the kind of experiment: Cell viability assay (MTS) HGC27. It counts as cell-based. The note with it: 72 h, @ 50 μM. The method, then:
as §1

Test [7] deals with MCF-7 breast cancer cells. The test is described as follows: Cell viability assay (MTT) MCF-7. It counts as cell-based. Conditions: 72 h, @ 50 μM. How it is done:
as §1

We go through 2 compounds from article PMC10641818, “Development of First-in-Class Dual Sirt2/HDAC6 Inhibitors as Molecular Tools for Dual Inhibition of Tubulin Deacetylation” (Journal of Medicinal Chemistry, 2023).

Molecules are shown by their SMILES.

Chain of Sirt2 (demyristoylation) (Q8IXJ6 whole entry): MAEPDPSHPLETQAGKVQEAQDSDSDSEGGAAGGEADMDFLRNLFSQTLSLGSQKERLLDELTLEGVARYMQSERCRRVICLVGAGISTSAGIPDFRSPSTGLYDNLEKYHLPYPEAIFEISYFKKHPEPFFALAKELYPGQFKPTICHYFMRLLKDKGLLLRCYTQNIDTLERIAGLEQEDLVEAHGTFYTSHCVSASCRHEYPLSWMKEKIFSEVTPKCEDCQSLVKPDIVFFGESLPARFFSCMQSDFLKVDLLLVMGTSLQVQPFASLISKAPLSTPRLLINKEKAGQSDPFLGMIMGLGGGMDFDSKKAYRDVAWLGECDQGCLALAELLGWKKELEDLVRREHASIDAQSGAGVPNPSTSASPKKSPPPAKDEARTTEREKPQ

As to `COCCn1cc(COc2cccc(Cc3cnc(NC(=O)CSc4nc(C)cc(C)n4)s3)c2)nn1` [Compound 5, SirReal1.2, reference compound], in test [1], the “α-tubulin acetylation (immunofluorescence)” value is listed as “very minor”. Further, in test [2], the IC50 was 0.48 ± 0.12 µM.
For `Cc1cc(C)nc(SCC(=O)Nc2ncc(Cc3cccc(OCc4cn(CCCCC(=O)NCc5ccc(C(=O)NO)cc5)nn4)c3)s2)n1` [Compound 32, 4-((5-(4-((3-((2-(2-((4,6-Dimethylpyrimidin-2-yl)thio)acetamido)thiazol-5-yl)methyl)phenoxy)methyl)-1H-1,2,3-triazol-1-yl)pentanamido)methyl)-N-hydroxybenzamide], in test [3], the PC-3M-luc cellular effect entry was “ni ^b (ni = no inhibition (cellular effect <20% @ 50 μM))”. Further, in test [4], the “Histone H3 hyperacetylation (cellular class I HDAC off-target inhibition)” value is “no significant off-target inhibition of class I”. Further, the W1 cellular effect entry in test [5] is “ni ^b (ni = no inhibition (cellular effect <20% @ 50 μM))”. Moreover, in test [6], the HGC27 cellular effect result is “ni ^b (ni = no inhibition (cellular effect <20% @ 50 μM))”. For the same compound, the MCF-7 cellular effect entry in test [7] is given as “ni ^b (ni = no inhibition (cellular effect <20% @ 50 μM))”.

As usually defined, the IC50 is the concentration needed to halve the response being measured.
